This passage reports IC50 results from patent US12692261B2, “Substituted heterocyclic compounds and therapeutic uses thereof” (Bayer Aktiengesellschaft, priority 2020, dated 2026).

Experiment [1] concerns the target T1, full-length human CSNK1A1 (Homo sapiens, UniProt P48729).
T1 construct: N-terminal Glutathion-S-Transferase (GST) and full-length human CSNK1A1; purchased Life Technologies PV4174; host or cells: baculovirus infected insect cells
Put plainly: CSNK1A1 Assay 2 (ADP-Glo, 1 μM ATP, substrate biotin-Ahx-KRRRAL-pS-VASLPGL). Format: biochemical. Particulars: Table 3, read-out: CSNK1A1 Assay 2 IC50 [mol/l] (median). The essentials: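 Activity read as ADP generated (ADP-Glo luciferase luminescence, 1 h detection steps at 22 °C). Enzyme was insect-cell-expressed GST–full-length human CSNK1A1, compound-preincubated 15 min before reaction with phosphopeptide substrate and 1 μM ATP in 50 mM HEPES pH 7.5, 10 mM MgCl2.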

In the next experiment the target is T2, full-length human CSNK1D (Homo sapiens, UniProt P48730).
T2 construct: N-terminal Glutathion-S-Transferase (GST) and full-length human CSNK1D; purchased Life Technologies PV3665; host or cells: baculovirus infected insect cells
T2 sequence (P48730 whole entry): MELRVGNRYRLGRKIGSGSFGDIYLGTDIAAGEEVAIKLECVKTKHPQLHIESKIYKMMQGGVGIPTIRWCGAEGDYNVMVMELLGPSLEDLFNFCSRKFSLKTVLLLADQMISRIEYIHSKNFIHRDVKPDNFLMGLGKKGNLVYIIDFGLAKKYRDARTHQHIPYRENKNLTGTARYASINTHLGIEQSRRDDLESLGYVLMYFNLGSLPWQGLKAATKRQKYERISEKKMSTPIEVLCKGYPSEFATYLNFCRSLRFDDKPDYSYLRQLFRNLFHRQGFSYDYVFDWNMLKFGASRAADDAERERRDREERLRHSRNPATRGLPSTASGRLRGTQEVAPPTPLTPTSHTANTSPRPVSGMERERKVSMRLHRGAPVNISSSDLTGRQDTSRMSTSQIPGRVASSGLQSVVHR
Description: CSNK1D Assay (ADP-Glo, 1 μM ATP). The experiment is classed as biochemical. Particulars: Table 3, read-out: CSNK1D IC50 [mol/l] (median). The essentials: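 ADP-Glo luminescence reports ADP generated by GST-fused full-length human CSNK1D (insect-cell expressed, about 0.5 ng/μL) acting on a biotinylated peptide at 1 μM ATP. Test compounds were pre-bound to enzyme 15 min at 22° C in 50 mM HEPES pH 7.5.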
In general terms: ADP-Glo first removes unused ATP, then detects ADP through luciferase.

T1 sequence (P48729 whole entry): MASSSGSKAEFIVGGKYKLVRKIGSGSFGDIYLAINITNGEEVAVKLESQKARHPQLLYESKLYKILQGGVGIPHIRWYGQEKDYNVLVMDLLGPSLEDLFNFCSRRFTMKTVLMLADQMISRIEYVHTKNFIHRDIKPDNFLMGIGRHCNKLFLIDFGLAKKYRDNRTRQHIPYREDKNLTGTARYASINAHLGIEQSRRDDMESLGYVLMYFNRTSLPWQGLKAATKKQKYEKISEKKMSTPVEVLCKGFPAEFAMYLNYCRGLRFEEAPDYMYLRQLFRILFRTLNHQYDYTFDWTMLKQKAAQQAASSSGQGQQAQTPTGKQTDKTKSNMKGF

Regarding `O=C(Nc1cc(-c2[nH]c3c(OC[C@@H]4COCCO4)cc(F)nc3c2-c2ccccn2)ccn1)C(CC(F)F)c1ccc(F)cc1` (single isomer, unassigned) [Example 59, (2R or S)—N-{4-[7-{[(2S)-1,4-dioxan-2-yl]methoxy}-5-fluoro-3-(pyridin-2-yl)-1H-pyrrolo[3,2-b]pyridin-2-yl]pyridin-2-yl}-4,4-difluoro-2-(4-fluorophenyl)butanamide], the results for the IC50 (in experiment [1]; on full-length human CSNK1D) were 12.7 nM and 19.6 nM, respectively.
For `O=C(Nc1cc(-c2[nH]c3c(O[C@H]4CCOC4)ncnc3c2-c2ccccn2)ccn1)C(CC(F)F)c1ccc(F)cc1` (single isomer, unassigned) [Example 73, (2R or S)-4,4-difluoro-2-(4-fluorophenyl)-N-{4-[4-{[(3S)-oxolan-3-yl]oxy}-7-(pyridin-2-yl)-5H-pyrrolo[3,2-d]pyrimidin-6-yl]pyridin-2-yl}butanamide], the IC50 was determined as 4.16 nM in experiment [1] and 4.02 nM at full-length human CSNK1D.
Regarding `O=C(Nc1cc(-c2[nH]c3c(OC[C@H]4COCCO4)cc(F)nc3c2-c2ccccn2)ccn1)C(CC(F)F)c1ccc(F)cc1` (single isomer, unassigned) [Example 52, (2R or S)—N-{4-[7-{[(2R)-1,4-dioxan-2-yl]methoxy}-5-fluoro-3-(pyridin-2-yl)-1H-pyrrolo[3,2-b]pyridin-2-yl]pyridin-2-yl}-4,4-difluoro-2-(4-fluorophenyl)butanamide], the IC50 came out at 17.2 nM in experiment [1] and 23.4 nM on full-length human CSNK1D.
For `O=C(Nc1cc(-c2[nH]c3cc(Cl)cnc3c2-c2ccccn2)ccn1)C(CC(F)F)c1ccc(F)cc1` (single isomer, unassigned) [Example 89, (−)—N-{4-[6-chloro-3-(pyridin-2-yl)-1H-pyrrolo[3,2-b]pyridin-2-yl]pyridin-2-yl}-4,4-difluoro-2-(4-fluorophenyl)butanamide], the IC50 amounted to 89 nM in experiment [1] and 104 nM at full-length human CSNK1D.
Consider `Cc1ccnc2c(-c3ccccn3)c(-c3ccnc(NC(=O)C(CC(F)F)c4ccc(F)cc4)c3)[nH]c12` (stereo not shown) [Example 84, 4,4-difluoro-2-(4-fluorophenyl)-N-{4-[7-methyl-3-(pyridin-2-yl)-1H-pyrrolo[3,2-b]pyridin-2-yl]pyridin-2-yl}butanamide], for which the IC50 came to 4.77 nM in experiment [1] and 7.35 nM at full-length human CSNK1D.
Taken in the same sequence, the figures for `O=C(Nc1cc(-c2[nH]c3c(OCC4CCCO4)cc(F)nc3c2-c2ccccn2)ccn1)C(CC(F)F)c1ccc(F)cc1` (racemic) [Example 61, (2RS)-4,4-difluoro-N-{4-[5-fluoro-7-{[(2RS)-oxolan-2-yl]methoxy}-3-(pyridin-2-yl)-1H-pyrrolo[3,2-b]pyridin-2-yl]pyridin-2-yl}-2-(4-fluorophenyl)butanamide] were 11.1 nM and 8.79 nM.
For the compound `COc1cnc2c(-c3ccccn3)c(-c3ccnc(NC(=O)C(CC(F)F)c4ccc(F)cc4)c3)[nH]c2c1` (stereo not shown) [Example 81, 4,4-difluoro-2-(4-fluorophenyl)-N-{4-[6-methoxy-3-(pyridin-2-yl)-1H-pyrrolo[3,2-b]pyridin-2-yl]pyridin-2-yl}butanamide], the IC50 in experiment [1] came out at 4.02 nM; at full-length human CSNK1D, 5.85 nM.
Taken in the same sequence, the figures for `O=C(Nc1cc(-c2[nH]c3ccc(F)nc3c2-c2ccccn2)ccn1)[C@@H](CC(F)F)c1ccc(F)cc1` (single isomer, unassigned) [Example 2] were 1.36 nM and 2.63 nM.
`Cc1cnc2c(-c3ccccn3)c(-c3ccnc(NC(=O)C(CC(F)F)c4ccc(F)cc4)c3)[nH]c2n1` (stereo not shown) [Example 85, 4,4-difluoro-2-(4-fluorophenyl)-N-{4-[3-methyl-7-(pyridin-2-yl)-5H-pyrrolo[2,3-b]pyrazin-6-yl]pyridin-2-yl}butanamide]: the IC50 in experiment [1] came out at 4.21 nM; on full-length human CSNK1D, 7.11 nM.
Take `O=C(Nc1cc(-c2[nH]c3ncc(F)nc3c2-c2ccccn2)ccn1)C(CC(F)F)c1ccc(F)cc1` (single isomer, unassigned) [Example 63, (2R or S)-4,4-difluoro-2-(4-fluorophenyl)-N-{4-[2-fluoro-7-(pyridin-2-yl)-5H-pyrrolo[2,3-b]pyrazin-6-yl]pyridin-2-yl}butanamide]: the IC50 in experiment [1] worked out at 1.48 nM; on full-length human CSNK1D it was 3.77 nM.
For the compound `O=C(Nc1cc(-c2[nH]c3cc(F)cnc3c2-c2ccccn2)ccn1)C(CO)c1ccc(F)cc1` (racemic) [Example 71, (2RS)—N-(4-(6-fluoro-3-(pyridin-2-yl)-1H-pyrrolo[3,2-b]pyridin-2-yl)pyridin-2-yl)-2-(4-fluorophenyl)-3-hydroxypropanamide], the results for the IC50 (in experiment [1]; on full-length human CSNK1D) were 8.21 nM and 12.8 nM, respectively.
Turning to `O=C(Nc1cc(-c2[nH]c3c(N4CCNCC4)ccnc3c2-c2ccccn2)ccn1)C(CC(F)F)c1ccc(F)cc1` (racemic) [Example 92, (2RS)-4,4-difluoro-2-(4-fluorophenyl)-N-{4-[7-(piperazin-1-yl)-3-(pyridin-2-yl)-1H-pyrrolo[3,2-b]pyridin-2-yl]pyridin-2-yl}butanamide], the IC50 is 2.35 nM in experiment [1] and 6.27 nM at full-length human CSNK1D.
`O=C(Nc1cc(-c2[nH]c3cc(Cl)cnc3c2-c2ccccn2)ccn1)C(CC(F)F)c1ccc(F)cc1` (single isomer, unassigned) [Example 88, (+)—N-{4-[6-chloro-3-(pyridin-2-yl)-1H-pyrrolo[3,2-b]pyridin-2-yl]pyridin-2-yl}-4,4-difluoro-2-(4-fluorophenyl)butanamide]: the IC50 in experiment [1] worked out at 4.72 nM; on full-length human CSNK1D it was 7.42 nM.
As to `O=C(Nc1cc(-c2[nH]c3c(O[C@H]4CCOC4)cc(F)nc3c2-c2ccccn2)ccn1)C(CC(F)F)c1ccc(F)cc1` (single isomer, unassigned) [Example 54, (2R or S)-4,4-difluoro-N-{4-[5-fluoro-7-{[(3S)-oxolan-3-yl]oxy}-3-(pyridin-2-yl)-1H-pyrrolo[3,2-b]pyridin-2-yl]pyridin-2-yl}-2-(4-fluorophenyl)butanamide], the values for the IC50 (in experiment [1]; at full-length human CSNK1D) were 4.22 nM and 3.7 nM, respectively.
Regarding `COc1cnc2c(-c3ccccn3)c(-c3ccnc(NC(=O)C(CC(F)F)c4ccc(F)cc4)c3)[nH]c2c1` (single isomer, unassigned) [Example 82, 4,4-difluoro-2-(4-fluorophenyl)-N-{4-[6-methoxy-3-(pyridin-2-yl)-1H-pyrrolo[3,2-b]pyridin-2-yl]pyridin-2-yl}butanamide], the IC50 in experiment [1] stood at 2.68 nM; at full-length human CSNK1D, 3.17 nM.
For `CN1CCN(c2cc(F)nc3c(-c4ccccn4)c(-c4ccnc(NC(=O)C(CC(F)F)c5ccc(F)cc5)c4)[nH]c23)CC1` (racemic) [Example 56, (2RS)-4,4-difluoro-N-{4-[5-fluoro-7-(4-methylpiperazin-1-yl)-3-(pyridin-2-yl)-1H-pyrrolo[3,2-b]pyridin-2-yl]pyridin-2-yl}-2-(4-fluorophenyl)butanamide] the same measures were 3.19 nM and 6.67 nM.
Regarding `O=C(Nc1cc(-c2[nH]c3c(O[C@H]4CCOC4)cc(F)nc3c2-c2ccccn2)ccn1)C(CC(F)F)c1ccc(F)cc1` (single isomer, unassigned) [Example 55, (2R or S)-4,4-difluoro-N-{4-[5-fluoro-7-{[(3S)-oxolan-3-yl]oxy}-3-(pyridin-2-yl)-1H-pyrrolo[3,2-b]pyridin-2-yl]pyridin-2-yl}-2-(4-fluorophenyl)butanamide], the figures for the IC50 (in experiment [1]; at full-length human CSNK1D) were 18.3 nM and 24.9 nM, respectively.
